Data published in PubChem BioAssay AID192 (DTP/NCI, 2004).
Values joined by “and” are separate entries in the source; they are usually repeats but may differ in a detail not shown here. Equal values may be shown once. Inconclusive results and toxic doses are left out. Rule for the calls: active = survival T/C of 150% or more; inactive = T/C below 125% in these data. Numbered stars: 1 amine (or outer) side, 2 acyl side, 3 side chain; on linkers, the order of the positions; unused ones are H or OH. Peptide text beside a SMILES is read from it. γGlu = O=C(O)[CH](CCC(=O)[*:2])N[*:1]

Tested on: BDF1 mice, B16 melanoma ip, median survival T/C
Assay: NCI In Vivo Anticancer Drug Screen. Data for tumor model B16 Melanoma (intraperitoneal) in B6D2F1 (BDF1) mice
Details: endpoint: median survival time, higher = longer survival
Summary of the method: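 The ratio T/C compares compound-treated mice with vehicle-treated controls, using survival or tumor size as the endpoint in a transplantable tumor model.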

[1] = dose: 50.0 mg/kg/injection, schedule: Q01DX009 (ip), vehicle: Klucel (hydroxypropylcellulose) (HPC)
[2] = dose: 100.0 mg/kg/injection, schedule: Q01DX009 (ip), vehicle: Klucel (hydroxypropylcellulose) (HPC)
[3] = dose: 12.5 mg/kg/injection, schedule: Q01DX009 (ip), vehicle: saline with Tween-80
[4] = dose: 25.0 mg/kg/injection, schedule: Q01DX009 (ip), vehicle: Klucel (hydroxypropylcellulose) (HPC)
[5] = dose: 200.0 mg/kg/injection, schedule: Q01DX009 (ip), vehicle: Klucel (hydroxypropylcellulose) (HPC)
[6] = dose: 400.0 mg/kg/injection, schedule: Q01DX009 (ip), vehicle: Klucel (hydroxypropylcellulose) (HPC)
[7] = dose: 6.25 mg/kg/injection, schedule: Q01DX009 (ip), vehicle: saline with Tween-80
[8] = dose: 25.0 mg/kg/injection, schedule: Q01DX009 (ip), vehicle: saline with Tween-80
[9] = dose: 12.5 mg/kg/injection, schedule: Q01DX009 (ip), vehicle: saline
[10] = dose: 25.0 mg/kg/injection, schedule: Q01DX009 (ip), vehicle: saline
[11] = dose: 50.0 mg/kg/injection, schedule: Q01DX009 (ip), vehicle: saline
[12] = dose: 100.0 mg/kg/injection, schedule: Q01DX009 (ip), vehicle: saline
[13] = dose: 200.0 mg/kg/injection, schedule: Q01DX009 (ip), vehicle: saline

Measured: T/C

COc1ccc2c(c1)C(OC)C1c3c(cc4c(c3-2)OCO4)CCN1C (stereo not given)
inactive: dose: 1.0 mg/kg/injection, schedule: Q01DX009 (ip), vehicle: acid diluted with saline 123 % of control | dose: 2.0 mg/kg/injection, schedule: Q01DX009 (ip), vehicle: acid diluted with saline 89 % of control

COc1cc(O)c2c(c1)C(=O)c1cc3c(c(O)c1C2=O)C(OC1OC(C)C(O)C(O)C1OC)C(OC)C(C)(O)C3=O (stereo not given)
inactive: [1] 117 % of control | [2] 96 % of control

CCOC(=O)c1ccc(NC(=O)Nc2nccs2)cc1
inactive: dose: 6.25 mg/kg/injection, schedule: Q01DX009 (ip), vehicle: Klucel (hydroxypropylcellulose) (HPC) 102 % of control | dose: 6.25 mg/kg/injection, schedule: Q01DX009 (oral), vehicle: Klucel (hydroxypropylcellulose) (HPC) 113 % of control | dose: 12.5 mg/kg/injection, schedule: Q01DX009 (ip), vehicle: Klucel (hydroxypropylcellulose) (HPC) 99 % of control | [3] 110 % of control | dose: 12.5 mg/kg/injection, schedule: Q01DX009 (oral), vehicle: Klucel (hydroxypropylcellulose) (HPC) 108 % of control | dose: 12.5 mg/kg/injection, schedule: Q01DX009 (oral), vehicle: saline with Tween-80 107 % of control | [4] 96 % of control | dose: 25.0 mg/kg/injection, schedule: Q01DX009 (oral), vehicle: Klucel (hydroxypropylcellulose) (HPC) 110 % of control | dose: 25.0 mg/kg/injection, schedule: Q01DX009 (oral), vehicle: saline with Tween-80 109 % of control | [1] 96 % of control | dose: 50.0 mg/kg/injection, schedule: Q01DX009 (oral), vehicle: Klucel (hydroxypropylcellulose) (HPC) 119 % of control | dose: 50.0 mg/kg/injection, schedule: Q01DX009 (oral), vehicle: saline with Tween-80 106 % of control | [2] 114 % of control | dose: 100.0 mg/kg/injection, schedule: Q01DX009 (oral), vehicle: Klucel (hydroxypropylcellulose) (HPC) 102 % of control | dose: 100.0 mg/kg/injection, schedule: Q01DX009 (oral), vehicle: saline with Tween-80 119 % of control | [5] 113 % of control | dose: 200.0 mg/kg/injection, schedule: Q01DX009 (oral), vehicle: Klucel (hydroxypropylcellulose) (HPC) 99 % of control | dose: 200.0 mg/kg/injection, schedule: Q01DX009 (oral), vehicle: saline with Tween-80 112 % of control | dose: 400.0 mg/kg/injection, schedule: Q01DX009 (oral), vehicle: saline with Tween-80 110 % of control

O=C(N/N=C\c1ccc(N(CCCl)CCCl)cc1)c1cccnc1
inactive: dose: 100.0 mg/kg/injection, schedule: Q01DX009 (ip), vehicle: gum acacia 91 % of control | dose: 200.0 mg/kg/injection, schedule: Q01DX009 (ip), vehicle: gum acacia 102 % of control | dose: 400.0 mg/kg/injection, schedule: Q01DX009 (ip), vehicle: gum acacia 102 % of control

CC[CH](C)[Hg][c]1cccc2ccccc12 (stereo not given)
inactive: [4] 105 % of control | [1] 91 % of control

C1OC1CN1CCN(CC2CO2)CC1 (stereo not given)
inactive: dose: 8.0 mg/kg/injection, schedule: Q01DX009 (ip), vehicle: saline with Tween-80 121 % of control | dose: 16.0 mg/kg/injection, schedule: Q01DX009 (ip), vehicle: saline with Tween-80 119 % of control

CC(C)C(O)(C(=O)OCC1=CC[N+]2(C)CCC(O)C12)C(C)O (stereo not given)
inactive: dose: 12.5 mg/kg/injection, schedule: Q01DX009 (ip), vehicle: water 105 % of control | dose: 25.0 mg/kg/injection, schedule: Q01DX009 (ip), vehicle: water 107 % of control | dose: 50.0 mg/kg/injection, schedule: Q01DX009 (ip), vehicle: water 113 % of control | dose: 100.0 mg/kg/injection, schedule: Q01DX009 (ip), vehicle: water 109 % of control | dose: 200.0 mg/kg/injection, schedule: Q01DX009 (ip), vehicle: water 108 % of control

Cc1ccc(N=P(c2ccccc2)(c2ccccc2)c2ccccc2)cc1
inactive: [2] 94 % of control | [5] 108 % of control | [6] 91 % of control

CC(=O)N(C)c1ccc(/C=C2\C=Cc3ccccc32)cc1
inactive: [7] 96 % of control | [3] 100 % of control | [8] 102 % of control

CCCSc1ccccc1N1CCN(CC(COC)OC)CC1 (stereo not given)
inactive: [9] 101 % of control | [10] 100 % of control | [11] 96 % of control

CCCCCCCCCCCCCC(=O)N(C)C
inactive: [9] 97 % of control | [10] 97 % of control | dose: 50.0 mg/kg/injection, schedule: Q01DX009 (ip), vehicle: saline with Tween-80 93 % of control

CNCC(O)c1ccc(O)cc1 (stereo not given)
inactive: [10] 110 % of control | [11] 115 % of control and 121 % of control | [12] 110 % of control and 121 % of control | dose: 150.0 mg/kg/injection, schedule: Q01DX009 (ip), vehicle: saline 91 % of control | [13] 106 % of control and 123 % of control | dose: 300.0 mg/kg/injection, schedule: Q01DX009 (ip), vehicle: saline 94 % of control | dose: 400.0 mg/kg/injection, schedule: Q01DX009 (ip), vehicle: saline 110 % of control | dose: 600.0 mg/kg/injection, schedule: Q01DX009 (ip), vehicle: saline 89 % of control

NC(CCC(=O)NC(CCC(=O)O)C(=O)NC(CCC(=O)O)C(=O)O)C(=O)O (stereo not drawn) (γGlu-Glu-Glu-OH; configuration not given here)
inactive: [11] 92 % of control | [12] 96 % of control | [13] 89 % of control

O=[N+]([O-])c1ccc(Oc2ccc(Cl)cc2)cc1
inactive: [2] 93 % of control | [5] 93 % of control | [6] 100 % of control

CCOC(=O)NC(CC)CO (stereo not given)
inactive: [2] 100 % of control | dose: 100.0 mg/kg/injection, schedule: Q04DX003 (ip), vehicle: Klucel (hydroxypropylcellulose) (HPC) 90 % of control | [5] 97 % of control | dose: 200.0 mg/kg/injection, schedule: Q04DX003 (ip), vehicle: Klucel (hydroxypropylcellulose) (HPC) 100 % of control | [6] 102 % of control | dose: 400.0 mg/kg/injection, schedule: Q04DX003 (ip), vehicle: Klucel (hydroxypropylcellulose) (HPC) 95 % of control

CCCCCC#CC(=O)O
inactive: dose: 75.0 mg/kg/injection, schedule: Q01DX009 (ip), vehicle: Klucel (hydroxypropylcellulose) (HPC) 95 % of control | dose: 150.0 mg/kg/injection, schedule: Q01DX009 (ip), vehicle: Klucel (hydroxypropylcellulose) (HPC) 86 % of control

CN(C)CCCN=Cc1cc(Cl)ccc1O.CN(C)CCCN=Cc1cc(Cl)ccc1O.[Ni+2]
inactive: [7] 122 % of control | [3] 116 % of control | [8] 111 % of control

O=C(O)C(O)C(O)C(O)C(O)C(=O)O (stereo not given)
inactive: dose: 300.0 mg/kg/injection, schedule: Q01DX009 (ip), vehicle: Klucel (hydroxypropylcellulose) (HPC) 100 % of control | dose: 600.0 mg/kg/injection, schedule: Q01DX009 (ip), vehicle: Klucel (hydroxypropylcellulose) (HPC) 93 % of control | dose: 900.0 mg/kg/injection, schedule: Q01DX009 (ip), vehicle: Klucel (hydroxypropylcellulose) (HPC) 91 % of control

Brc1cc(Br)cc(-c2nnc(-c3cccc4ccccc34)o2)c1
inactive: [5] 94 % of control

CC(CN1CCN(CCOCCO)CC1)CN1c2ccccc2Sc2ccccc21 (stereo not given)
inactive: dose: 1.56 mg/kg/injection, schedule: Q01DX009 (ip), vehicle: saline 108 % of control | dose: 3.12 mg/kg/injection, schedule: Q01DX009 (ip), vehicle: saline 97 % of control | dose: 6.25 mg/kg/injection, schedule: Q01DX009 (ip), vehicle: saline 102 % of control | [10] 100 % of control and 101 % of control

NC(=O)NO
inactive: dose: 37.5 mg/kg/injection, schedule: Q03HX024 (ip), vehicle: saline 95 % of control and 100 % of control | dose: 75.0 mg/kg/injection, schedule: Q03HX024 (ip), vehicle: saline 95 % of control | dose: 150.0 mg/kg/injection, schedule: Q01DX009 (ip), vehicle: water 95 % of control | dose: 150.0 mg/kg/injection, schedule: Q01DX017 (ip), vehicle: water 93 % of control | dose: 150.0 mg/kg/injection, schedule: Q## X009 (ip), vehicle: water 95 % of control | dose: 300.0 mg/kg/injection, schedule: Q01DX009 (ip), vehicle: water 100 % of control | dose: 300.0 mg/kg/injection, schedule: Q01DX017 (ip), vehicle: water 97 % of control | dose: 300.0 mg/kg/injection, schedule: Q## X009 (ip), vehicle: water 93 % of control | dose: 600.0 mg/kg/injection, schedule: Q## X009 (ip), vehicle: water 100 % of control | dose: 2400.0 mg/kg/injection, schedule: Q01DX001 (ip), vehicle: water 100 % of control
